Reference: patent US20250223626A1, “METHODS OF DIAGNOSING IBS-D AND SELECTION OF IBS-D TREATMENT” (priority 2022, published 2025)
“Also recorded” adds a separate entry of the source.

Experiments:
[1] = rats on HFD, 10 days of treatment, compared to controls on HFD (P=0.07)
Method: (§1) Therefore, HFD was used to assess the effects of persistent M. smithii elevation on stool consistency (stool wet weights). Sprague-Dawley rats were placed on a HFD (60% energy from fat [D12492; Research Diets, New Brunswick, NJ]) for 7 weeks. […] Stool collections were performed at baseline, after 7 weeks on HFD, and after the 10-day lovastatin/control treatments. Stool wet weights were determined. Stool and small bowel DNAs were extracted at euthanasia and the absolute abundance of M. smithii was determined by qPCR as described previously.

[2] = system: Methanobrevibacter smithii; conditions: rats on HFD, gavaged 10 days with 1.5 mg/ml, compared to controls (water)
Method: as §1

## CC[C@H](C)C(=O)O[C@H]1C[C@@H](C)C=C2C=C[C@H](C)[C@H](CC[C@@H](O)C[C@@H](O)CC(=O)O)[C@H]21 [lovastatin hydroxyacid]
[1]
  stool consistency (stool wet weight): normalization

## CC[C@H](C)C(=O)O[C@H]1C[C@@H](C)C=C2C=C[C@H](C)[C@H](CC[C@@H]3C[C@@H](O)CC(=O)O3)[C@H]21 [lovastatin lactone]
[1]
  stool consistency (stool wet weight): normalization
[2]
  M. smithii absolute load in the small bowel: decreased; also recorded: reduction
